Entries after “also recorded” stand apart in the source; their conditions may differ.

Data set [1] deals with Han:SPRD rats. Nature of the data set: BHB, citrate and combined BHB-citrate treatment in drinking water of Han:SPRD PKD rats, post-natal weeks 3-8. Type of data set: in vivo, rat. Particulars: for dose dependence of benefit on PKD progression: varying concentrations, citrate particularly at the 120 mM dosage. The method, then:
To investigate BHB, citrate, and combined BHB and citrate effects on PKD progression, Han:SPRD rats were treated with BHB or a combination of BHB and citrate from post-natal weeks 3-8 in the context of ad libitum feeding with normal, high-carbohydrate chow (NC). In the BHB treatments, BHB was administered as a sodium and potassium salt in the drinking water ad libitum at a dose equivalent to that recommended as a dietary supplement in BHB supplement drinks. In the citrate treatments, citrate was administered as a combination of tripotassium citrate and citric acid at a (0.82/1) ratio at a dose equivalent to that recommended utilized in citrate dietary supplements. Control cohorts received either normal water or water supplemented with the molar equivalents of salt provided in the BHB or BHB-citrate supplements (a mixture of NaCl/KCl). […]

The subject of data set [2] is Han:SPRD rats. Put plainly: Oral BHB treatment in drinking water of juvenile Han:SPRD PKD rats, post-natal weeks 3-8. Type of data set: in vivo, rat. The method, then: Han:SPRD rats, a non-orthologous model of PKD with a mutation in Anks6 were placed on a time-restricted feeding (TRF) regime wherein TRF animals had access to food for an 8-h period within their 12-h dark cycle. Animals were treated for 5 weeks from post-natal weeks 3-8. […] Additionally, TRF-treated animals had increased levels of BHB and reduced blood glucose indicative of ketosis. Oral BHB Treatment Prevents Polycystic Disease Progression in Juvenile Rats. To investigate if BHB might affect PKD progression, Han:SPRD rats were treated with BHB from post-natal weeks 3-8 in the context of ad libitum feeding with normal, high-carbohydrate chow (NC). BHB was administered as a sodium and potassium salt in the drinking water ad libitum at a dose equivalent to that recommended as a dietary supplement in BHB supplement drinks. Control cohorts received either normal water or water supplemented with the molar equivalents of salt provided in the BHB supplement (a mixture of NaCl/KCl).

Setting [3] is: PKD rats, 5 weeks BHB in drinking water.
Where [4] appears, read: PKD rats, 5 weeks BHB in drinking water, normal chow, vs water- and salt-treated controls.

For `CC(O)CC(=O)O` (stereo not drawn) [BHB, beta-hydroxybutyric acid], in data set [1] (5 weeks in drinking water), the “effect on body weight” value is “no effect”; the “effect on wild-type kidneys and other organs” value is given as “Neither wild-type kidneys nor other organs were affected”. The “2-kidney to body weight ratio” value in data set [1] (PKD rats, 5 weeks, vs water- and salt-treated controls (FIG. 8A)) is “striking reductions”. Moreover, the cystic area entry in data set [1] (PKD rats, 5 weeks, vs water- and salt-treated controls (FIG. 8B)) was “striking reductions”. Besides, the “kidneys of PKD animals at the gross and histological level” value in data set [1] (after 5 weeks of treatment) was “nearly indistinguishable from kidneys of wild-type animals”. The “dose dependence of benefit on PKD progression” value in data set [1] is “dose-dependent benefits”. Moreover, in data set [2] (5 weeks BHB in drinking water), the “effect on body weight” value is on record as “no effect”; the “effect on wild-type kidneys and other organs” value is reported as “Neither wild-type kidneys nor other organs were affected”. In data set [2] (setting [3]), the fibrosis entry is “strong reduction”, the “kidney function (assessed by creatinine)” value is given as “improved”, the myofibroblasts result was “almost complete elimination; also recorded: almost complete absence” and the proliferation result is listed as “inhibition”. Also, in data set [2] (setting [4]), the “2-kidney to body weight ratio” value is “striking and unexpected reductions”; the cystic area entry is “striking and unexpected reductions”. The “kidneys of PKD animals at the gross and histological level” value in data set [2] (after 5 weeks of treatment) is “nearly indistinguishable from kidneys of wild-type animals”.

As for citrate, in data set [1], the “dose dependence of benefit on PKD progression” value is listed as “dose-dependent therapeutic effects”.

For the origin of these results see US11013705B2, “Methods and compositions for supporting renal health” (The Regents of the University of California, priority 2019, dated 2021).
